test system: Plasmodium falciparum Dd2 asexual blood stage parasites; assay: microbe, parasite or virus in culture; parameters: species or system Plasmodium falciparum Dd2 in human erythrocytes; single determination (one 11-point concentration-response curve); conditions: Plasmodium falciparum, DD2, Erythrocyte, 72 h; read-out: AC50

`COc1cccc(CNCCSc2nnnn2C)c1OCc1ccc(Cl)cc1` [NCGC00103033-01] and `COc1cc2nc(SCc3ccc(F)cc3)n3nc(CCn4c(C)nc5ccccc54)nc3c2cc1OC` [NCGC00108638-01] are within 1.5-fold of each other in AC50: 2.66 µM for the first, 2.99 µM for the second.

First: COc1cc2c(C(=O)N3CCN(c4cc(Cl)ccc4C)CC3)cn(CC(C)C)c(=O)c2cc1OC [NCGC00103751-01]
Second: Cc1ccc(Cl)cc1N1CCN(C(=O)c2cn(CC(C)C)c(=O)c3c2c2ccccc2n3C)CC1 [NCGC00106023-01]
The AC50 of the first is 4.5-fold higher: 15 µM for the first, 3.35 µM for the second.

Going from `CCN1CCN(c2cc(C)c3cc(NC(=O)c4cc(OC)cc(OC)c4)ccc3n2)CC1` [NCGC00103842-01] to `CCN1CCN(c2cc(C)c3cc(NC(=O)/C=C/c4cccc(OC)c4OC)ccc3n2)CC1` [NCGC00103854-01], the AC50 rises from 3.35 µM to 5.96 µM (1.8-fold).

`CCOc1ccccc1C(=O)N1CC(=O)Nc2ccc(Cl)cc2C1c1ccccc1` (centres unmarked) [NCGC00103922-01] and `CCOC(=O)N1CCC(NC(=O)c2ccc3c(c2)N(Cc2ccccc2)C(=O)c2ccccc2[S+]3[O-])CC1` (centres unmarked) [NCGC00109348-01] are within 1.5-fold of each other in AC50: 9.44 µM for the first, 13.3 µM for the second.

`CCOC(=O)c1cc2c(=O)n3ccccc3nc2n(CC(C)C)/c1=N\C(=O)COc1ccc(Cl)cc1` [NCGC00104075-01] and `CCOC(=O)c1ccccc1NC(=O)c1cn(CC(C)C)c(=O)c2cc(OC)c(OC)cc12` [NCGC00104537-01] are within 1.5-fold of each other in AC50: 10.6 µM for the first, 8.41 µM for the second.

Compared with `CCN(c1ccccc1)[S+](=O)([O-])c1cc(Br)cc2c1N(C(=O)C1CC1)CC2` [NCGC00104258-01], `O=C(C1CC1)N1CCc2cc(Br)cc([S+](=O)([O-])N3CCN(c4cccc(C(F)(F)F)c4)CC3)c21` [NCGC00104294-01] is 1.6-fold higher in AC50: 2.99 µM for the first, 4.73 µM for the second.

Compared with `CCN(CC)c1cc(C)c2cc(NC(=O)/C=C/c3cc(OC)c(OC)c(OC)c3)ccc2n1` [NCGC00104274-01], `CCOc1ccc(/C=C/C(=O)Nc2ccc3nc(N(CC)CC)cc(C)c3c2)cc1OC` [NCGC00104284-01] is 2.5-fold lower in AC50: 4.73 µM for the first, 1.88 µM for the second.

`CC(=O)N1c2c(cc(Br)cc2[S+](=O)([O-])N2CCN(c3cc(C)ccc3C)CC2)CC1C` (centres unmarked) [NCGC00104358-01] and `O=C(CC[S+](=O)([O-])c1cc(Br)cc2c1N(C(=O)C1CC1)CC2)N1CCN(c2cccc(Cl)c2)CC1` [NCGC00107190-01] are within 1.5-fold of each other in AC50: 11.9 µM for the first, 13.3 µM for the second.

First: COc1cccc(/C=C/C(=O)Nc2ccc3nc(N4CCN(C)CC4)cc(C)c3c2)c1OC [NCGC00104449-01]
Second: CCOC(=O)c1ccc(Nc2nc(N)c3cc(OC)c(OC)cc3n2)cc1 [NCGC00107259-01]
The AC50 of the first is 3.2-fold higher: 5.96 µM for the first, 1.88 µM for the second.

`CC(C)CN(CCNC(=O)c1cc(-c2ccc(Cl)s2)nc2ccccc12)CC(C)C` [NCGC00104475-01] and `CCN(CC)CCCNC(=O)c1nn(-c2ccc(OC)c(Cl)c2)c(=O)c2c1c1ccccc1n2C` [NCGC00108872-01] are within 1.5-fold of each other in AC50: 7.5 µM for the first, 10.6 µM for the second.

First: CC(=O)c1sc2c(c1C)c(=O)n(-c1ccc(Cl)cc1)c(=O)n2Cc1cc(=O)n2cc(Cl)ccc2n1 [NCGC00104860-01]
Second: Cc1sc2c(c1C)c(=O)n(-c1cccc(C(F)(F)F)c1)c(=O)n2Cc1ccc(F)cc1 [NCGC00106130-01]
The AC50 of the first is 3.6-fold higher: 7.5 µM for the first, 2.11 µM for the second.

Going from `COc1cc2c(cc1OC)C(COc1ccc3c(C)cc(=O)oc3c1)N(C(=O)Cc1ccc(F)cc1)CC2` (centres unmarked) [NCGC00104919-01] to `COc1cc2c(cc1OC)C(COc1ccc3c(C)cc(=O)oc3c1)N(C(=O)c1ccccc1C)CC2` (centres unmarked) [NCGC00104945-01], the AC50 rises from 5.96 µM to 15 µM (2.5-fold).

Going from `COc1cccc(NC(=O)c2sc3nc(C)c(C(=O)Nc4ccc(C)cc4C)c(-c4ccccc4Cl)c3c2N)c1` [NCGC00104946-01] to `COc1cccc(NC(=O)c2sc3nc(C)c(C(=O)Nc4ccc(C)cc4C)c(-c4cccs4)c3c2N)c1` [NCGC00107008-01], the AC50 rises from 2.66 µM to 5.96 µM (2.2-fold).

Going from `Cc1nc2sc(C(=O)Nc3ccc(F)cc3)c(N)c2c(-c2ccc(Br)cc2)c1C(=O)Nc1ccc(Cl)cc1` [NCGC00105115-01] to `Cc1ccc(NC(=O)Cn2c(=O)n(-c3ccc(C)cc3)c(=O)c3ccc(C(=O)NCc4ccccc4Cl)cc32)cc1` [NCGC00108700-01], the AC50 falls from 8.41 µM to 5.31 µM (1.6-fold).

Going from `Cc1ccc(-c2nc3n(n2)C(c2ccccc2Cl)C=C(c2ccc(Cl)cc2)N3)cc1` (centres unmarked) [NCGC00105122-01] to `Cc1ccc(C2=CC(c3ccc(Cl)cc3)n3nc(-c4ccc(C)cc4)nc3N2)cc1` (centres unmarked) [NCGC00105128-01], the AC50 falls from 9.44 µM to 1.68 µM (5.6-fold).

`O=C(Cn1c(=O)n(Cc2ccc(C(=O)NCc3ccc4c(c3)OCO4)cc2)c(=O)c2ccccc21)Nc1cccc(Cl)c1` [NCGC00106483-01] and `CCN(C(=O)Cn1c(=O)n(Cc2ccc3c(c2)OCO3)c(=O)c2ccc(C(=O)NC3CCCCC3)cc21)c1cccc(C)c1` [NCGC00108796-01] are within 1.5-fold of each other in AC50: 5.96 µM for the first, 6.68 µM for the second.

Compared with `COc1cc(NC(=O)Cn2c(=O)n(CC3CCC(C(=O)NCCc4ccccc4)CC3)c(=O)c3ccccc32)cc(OC)c1` (centres unmarked) [NCGC00106543-01], `COc1ccc(-n2nc(C(=O)NCCc3ccc(OC)c(OC)c3)c3c4ccccc4n(C)c3c2=O)cc1Cl` [NCGC00108876-01] is 2-fold lower in AC50: 5.96 µM for the first, 2.99 µM for the second.

Going from `Cc1ccc2nc(-c3ccccc3O)c(Nc3ccccc3C)n2c1` [NCGC00106804-01] to `COc1ccc(Nc2c(-c3cc(Br)ccc3O)nc3ncccn23)cc1OC` [NCGC00107676-01], the AC50 rises from 2.37 µM to 4.73 µM (2-fold).

Going from `COc1cc(C2CC(=O)Nc3cc4c(cc32)OCCO4)cc(Br)c1OC` (centres unmarked) [NCGC00107055-01] to `COc1cc(Br)c(C2CC(=O)Nc3cc4c(cc32)OCCO4)cc1OC` (centres unmarked) [NCGC00107079-01], the AC50 falls from 5.31 µM to 2.37 µM (2.2-fold).

Compared with `CCn1c(=O)c(=O)n(CC)c2cc(N3CCCCC3)c(NC(=O)c3ccc(Cl)cc3)cc21` [NCGC00107440-01], `CCN1CCN(C(=O)c2ccc3c(c2)N(Cc2c(F)cccc2Cl)C(=O)c2ccccc2S3)CC1` [NCGC00108184-01] is 890-fold lower in AC50: 7.5 µM for the first, 0.00842 µM for the second.

Going from `Cc1nnc2c(N3CCN(c4ccccc4)CC3)nc3ccc(C(=O)c4ccccc4)cc3n12` [NCGC00107547-01] to `CN1CCN(C(=O)c2ccc3c(c2)N(Cc2c(F)cccc2Cl)C(=O)c2ccccc2S3)CC1` [NCGC00108178-01], the AC50 falls from 0.841 µM to 0.0596 µM (14-fold).

First: COCCNC(=O)CSc1nc(-c2cc(OC)c(OC)c(OC)c2)[nH]c1-c1ccc(Cl)cc1 [NCGC00107926-01]
Second: COc1cc(NC(=O)Cn2ncc3c(=O)oc4ccccc4c32)cc(OC)c1OC [NCGC00108571-01]
The AC50 of the first is 3.2-fold higher: 8.41 µM for the first, 2.66 µM for the second.

Going from `CN(C)CCNC(=O)c1ccc2c(c1)N(Cc1c(F)cccc1Cl)C(=O)c1ccccc1S2` [NCGC00108148-01] to `O=C(NCc1ccco1)c1ccc2c(c1)N(Cc1c(F)cccc1Cl)C(=O)c1ccccc1S2` [NCGC00108150-01], the AC50 rises from 2.11 µM to 13.3 µM (6.3-fold).

First: CCOc1ccc(CN2C(=O)c3ccccc3Sc3ccc(C(=O)N4CCN(C)CC4)cc32)cc1 [NCGC00108216-01]
Second: CCOc1ccc(CN2C(=O)c3ccccc3Sc3ccc(C(=O)N4CCC5(CC4)OCCO5)cc32)cc1 [NCGC00108218-01]
The AC50 of the first is 14-fold lower: 0.299 µM for the first, 4.22 µM for the second.

Compared with `OC1=C2C(=Nc3ccccc3SC2c2c(F)cccc2Cl)c2ccccc21` (centres unmarked) [NCGC00108823-01], `CCN(CCCNC(=O)c1nn(-c2ccc(OC)c(Cl)c2)c(=O)c2c1c1ccccc1n2C)c1cccc(C)c1` [NCGC00108898-01] is 1.6-fold higher in AC50: 9.44 µM for the first, 15 µM for the second.

Compared with `CCn1cc(C(=O)NCCCN2CCCC(C)C2)c(=O)c2cc([S+](=O)([O-])N(C)C3CCCCC3)ccc21` (centres unmarked) [NCGC00109162-01], `CCOc1ccccc1NC(=O)C1CCN([S+](=O)([O-])c2c(C)noc2/C=C/c2ccco2)CC1` [NCGC00109315-01] is 1.8-fold higher in AC50: 8.41 µM for the first, 15 µM for the second.

Compound `COc1ccc(/C=C\c2onc(C)c2[S+](=O)([O-])N2CCC(C(=O)Nc3ccc(C)cc3C)CC2)cc1` [NCGC00109197-01] has an AC50 of 0.841 µM.

Source: article PMC7822874, “Chemoprotective antimalarials identified through quantitative high-throughput screening of Plasmodium blood and liver stage parasites” (Scientific Reports, 2021)
